The text below walks through data of patent publication US10722501B2 (BAYER AKTIENGESELLSCHAFT, priority 2016, dated 2020).

SMILES strings stand for the structures.

This experiment has as its target T1, recombinant full-length human prolyl endopeptidase (PREP) (Homo sapiens, UniProt P48147).
T1 construct: To recombinant full-length human prolyl endopeptidase (PREP, R&D-Systems, 4308-SE); purchased R&D-Systems 4308-SE
T1 sequence (P48147 1-710): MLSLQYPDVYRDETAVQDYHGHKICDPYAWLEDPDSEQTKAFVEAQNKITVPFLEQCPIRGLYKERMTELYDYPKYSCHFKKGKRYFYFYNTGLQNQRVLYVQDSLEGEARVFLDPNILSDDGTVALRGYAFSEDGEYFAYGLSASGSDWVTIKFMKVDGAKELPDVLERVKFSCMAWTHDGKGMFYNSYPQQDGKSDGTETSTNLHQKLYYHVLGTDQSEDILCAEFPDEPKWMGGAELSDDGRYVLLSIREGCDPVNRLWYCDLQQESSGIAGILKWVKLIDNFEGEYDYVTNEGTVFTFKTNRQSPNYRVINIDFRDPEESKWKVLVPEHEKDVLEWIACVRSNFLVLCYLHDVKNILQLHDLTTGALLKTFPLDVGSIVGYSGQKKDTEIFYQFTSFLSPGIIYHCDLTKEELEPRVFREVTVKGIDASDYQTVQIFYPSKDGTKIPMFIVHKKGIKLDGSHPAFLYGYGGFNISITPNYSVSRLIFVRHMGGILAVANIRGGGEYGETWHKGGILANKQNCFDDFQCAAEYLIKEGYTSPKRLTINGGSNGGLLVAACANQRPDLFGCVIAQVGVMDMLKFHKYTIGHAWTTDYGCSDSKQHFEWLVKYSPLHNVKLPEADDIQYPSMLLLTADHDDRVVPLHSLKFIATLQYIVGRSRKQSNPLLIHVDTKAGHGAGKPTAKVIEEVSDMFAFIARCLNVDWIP
The experiment can be described thus: Biochemical human prolyl endopeptidase (PREP) assay with fluorescently labelled substrate. Conditions: substrate Z-Gly-Pro-AMC 50 μM, 32° C., 60 min; some as mean values from multiple independent determinations. The method, then:
B-1 Biochemical Human Prolyl Endopeptidase (PREP) Assay for Identification of Inhibitors of PREP Activity Using a Fluorescently Labelled Substrate Principle of the Assay:
The enzymatic conversion of the fluorescent peptide substrate was observed on the basis of the measurement of the fluorescence intensity. The enzyme activity was determined by the ascertaining of the initial slope in the increase in fluorescence. Compounds that inhibit PREP were identified on the basis of the decrease in the initial slope compared to a reaction mixture without test compound.
Determination of Activity:
IC50 values were determined by the plotting of the percentage PREP activity against the concentration of the test substance by interpolation.
To recombinant full-length human prolyl endopeptidase (PREP, R&D-Systems, 4308-SE; final concentration, for example, 0.4 nM, volume: 25 μl) in reaction buffer (50 mM Tris-HCl, pH 7.5; 150 mM NaCl; 0.13% BSA, 5 mM EDTA, 3 mM GSH, 0.005% Brij-35) was added a test compound (in DMSO, in an appropriate final concentration range from 1 nM to 30 μM, volume: 1 μl) in a well of a 384-well microtitre plate. The reaction was initiated by adding the substrate Z-Gly-Pro-AMC (final concentration 50 μM; Z=carboxybenzyl; AMC=7-amino-4-methylcoumarin, volume: 25 μl). The progress of the PREP reaction was observed by measuring the fluorescence intensity in a Tecan SAFIRE II plate spectrophotometer at 32° C. over a period of 60 min (excitation wavelength: 360 nm, emission wavelength: 465 nm).
Table B-1 below collates the IC50 values thus obtained from the human prolyl endopeptidase assay for individual working examples of the invention (some as mean values from multiple independent individual determinations).
For orientation: IC50 means the point on the concentration scale where inhibition reaches its midpoint. On to `O=C(C1CCCc2nn(Cc3ccc(C(F)(F)F)nc3)c(=O)n21)N1CC[C@@H](F)C1` (mixture of isomers) [Example 100, (5RS)-5-{[(3R)-3-Fluoropyrrolidin-1-yl]carbonyl}-2-{[6-(trifluoromethyl)pyridin-3-yl]methyl}-5,6,7,8-tetrahydro[1,2,4]triazolo[4,3-a]pyridin-3(2H)-one], for which the IC50 worked out at 7.9 nM.
As for `O=C(C1CCCc2nn(Cc3ccc(F)c(C(F)(F)F)c3)c(=O)n21)N1CC[C@H](O)C1` (mixture of isomers) [Example 101, (5RS)-2-[4-Fluoro-3-(trifluoromethyl)benzyl]-5-{[(3S)-3-hydroxypyrrolidin-1-yl]carbonyl}-5,6,7,8-tetrahydro[1,2,4]triazolo[4,3-a]pyridin-3(2H)-one], the IC50 was 3.05 nM.
For `Cc1ccc(Cn2nc3n(c2=O)C(C(=O)N2CCC4(C2)CC4(F)F)CCC3)cc1` (mixture of isomers) [Example 128, (5S)-{[(3RS)-1,1-Difluoro-5-azaspiro[2.4]hept-5-yl]carbonyl}-2-(4-methylbenzyl)-5,6,7,8-tetrahydro[1,2,4]triazolo[4,3-a]pyridin-3(2H)-one], the IC50 turned out to be 46 nM.
As for `Cc1ccc(Cn2nc3n(c2=O)C(C(=O)N2CCC(F)(CO)C2)CCC3)cc1` (mixture of isomers) [Example 147, (5S)-5-{[(3RS)-3-Fluoro-3-(hydroxymethyl)pyrrolidin-1-yl]carbonyl}-2-(4-methylbenzyl)-5,6,7,8-tetrahydro[1,2,4]triazolo[4,3-a]pyridin-3(2H)-one], the IC50 is 70 nM.
Then `O=C(C1CCc2nn(Cc3ccc(Cl)nc3)c(=O)n21)N1CC[C@H](F)C1` (mixture of isomers) [Example 163, (5RS)-2-[(6-Chloropyridin-3-yl)methyl]-5-{[(3S)-3-fluoropyrrolidin-1-yl]carbonyl}-2,5,6,7-tetrahydro-3H-pyrrolo[2,1-c][1,2,4]triazol-3-one], with 2.8 nM; and `O=C(C1CCc2nn(Cc3ccc(C(F)(F)F)nc3)c(=O)n21)N1CC[C@H](F)C1` (mixture of isomers) [Example 164, (5RS)-5-{[(3S)-3-Fluoropyrrolidin-1-yl]carbonyl}-2-{[6-(trifluoromethyl)pyridin-3-yl]methyl}-2,5,6,7-tetrahydro-3H-pyrrolo[2,1-c][1,2,4]triazol-3-one], with 3.7 nM; and `O=C(C1CCc2nn(Cc3ccc(F)c(Cl)c3)c(=O)n21)N1CC[C@H](F)C1` (mixture of isomers) [Example 165, (5RS)-2-(3-Chloro-4-fluorobenzyl)-5-{[(3S)-3-fluoropyrrolidin-1-yl]carbonyl}-2,5,6,7-tetrahydro-3H-pyrrolo[2,1-c][1,2,4]triazol-3-one], with 0.89 nM.
Next, `O=C(C1CCc2nn(Cc3ccnc(C(F)(F)F)c3F)c(=O)n21)N1CC[C@H](F)C1` (mixture of isomers) [Example 178, (5RS)-5-{[(3S)-3-Fluoropyrrolidin-1-yl]carbonyl}-2-{[3-fluoro-2-(trifluoromethyl)pyridin-4-yl]methyl}-2,5,6,7-tetrahydro-3H-pyrrolo[2,1-c][1,2,4]triazol-3-one]: 1.3 nM; `O=C([C@@H]1CCC(O)c2nn(Cc3ccc(C(F)(F)F)nc3)c(=O)n21)N1CC[C@H](F)C1` (mixture of isomers) [Example 275, (5S,8RS)-5-{[(3S)-3-Fluoropyrrolidin-1-yl]carbonyl}-8-hydroxy-2-{[6-(trifluoromethyl)pyridin-3-yl]methyl}-5,6,7,8-tetrahydro[1,2,4]triazolo[4,3-a]pyridin-3(2H)-one]: 1.15 nM.
Consider `O=C([C@@H]1CCC(O)c2nn(Cc3cncc(Cl)c3)c(=O)n21)N1CC[C@H](F)C1` (mixture of isomers) [Example 279, (5S,8RS)-2-[(5-Chloropyridin-3-yl)methyl]-5-{[(3S)-3-fluoropyrrolidin-1-yl]carbonyl}-8-hydroxy-5,6,7,8-tetrahydro[1,2,4]triazolo[4,3-a]pyridin-3(2H)-one], for which the IC50 was found to be 0.485 nM.
For the compound `Cc1cc(Cn2nc3n(c2=O)C(C(=O)N2CC[C@H](F)C2)CCC3)on1` (mixture of isomers) [Example 416, (5RS)-5-{[(3S)-3-Fluoropyrrolidin-1-yl]carbonyl}-2-[(3-methyl-1,2-oxazol-5-yl)methyl]-5,6,7,8-tetrahydro[1,2,4]triazolo[4,3-a]pyridin-3(2H)-one], the IC50 came to 3.4 nM.
Turning to `O=C([C@@H]1CCC(O)c2nn(Cc3ccc(Cl)cn3)c(=O)n21)N1CC[C@H](F)C1` (mixture of isomers) [Example 547, (5S,8RS)-2-[(5-Chloropyridin-2-yl)methyl]-5-{[(3S)-3-fluoropyrrolidin-1-yl]carbonyl}-8-hydroxy-5,6,7,8-tetrahydro[1,2,4]triazolo[4,3-a]pyridin-3(2H)-one], the IC50 is 0.43 nM.
`O=C([C@@H]1CCC(O)c2nn(Cc3ncc(F)cc3F)c(=O)n21)N1CC[C@H](F)C1` (mixture of isomers) [Example 585, (5S,8SR)-2-[(3,5-Difluoropyridin-2-yl)methyl]-5-{[(3S)-3-fluoropyrrolidin-1-yl]carbonyl}-8-hydroxy-5,6,7,8-tetrahydro[1,2,4]triazolo[4,3-a]pyridin-3(2H)-one]: the IC50 was 0.43 nM.
As to `O=C(C1CCCc2nn(Cc3ccc(C(F)(F)F)cc3)c(=O)n21)N1CCCC1` (racemic) [Example 1, (5RS)-5-(Pyrrolidin-1-ylcarbonyl)-2-[4-(trifluoromethyl)benzyl]-5,6,7,8-tetrahydro[1,2,4]triazolo[4,3-a]pyridin-3(2H)-one], the IC50 was found to be 1.75 nM.
Regarding `CC(C)(C)c1ccc(Cn2nc3n(c2=O)C(C(=O)N2CCCC2)CCC3)cc1` (racemic) [Example 2, (5RS)-2-(4-tert-Butylbenzyl)-5-(pyrrolidin-1-ylcarbonyl)-5,6,7,8-tetrahydro[1,2,4]triazolo[4,3-a]pyridin-3(2H)-one], the IC50 is 15.4 nM.
For the compound `CC(c1ccc(Cl)cc1)n1nc2n(c1=O)C(C(=O)N1CCCC1)CCC2` (racemic) [Example 3, (5RS)-2-[(1 RS)-1-(4-Chlorophenyl)ethyl]-5-(pyrrolidin-1-ylcarbonyl)-5,6,7,8-tetrahydro[1,2,4]triazolo[4,3-a]pyridin-3(2H)-one], the IC50 was 6 nM.
Regarding `CS(=O)(=O)c1ccc(Cn2nc3n(c2=O)C(C(=O)N2CCCC2)CCC3)cc1` (racemic) [Example 6, (5RS)-2-[4-(Methylsulphonyl)benzyl]-5-(pyrrolidin-1-ylcarbonyl)-5,6,7,8-tetrahydro[1,2,4]triazolo[4,3-a]pyridin-3(2H)-one], the IC50 was 120 nM.
Consider `O=C(C1CCCc2nn(Cc3ccc(OC(F)F)cc3)c(=O)n21)N1CCCC1` (racemic) [Example 7, (5RS)-2-[4-(Difluoromethoxy)benzyl]-5-(pyrrolidin-1-ylcarbonyl)-5,6,7,8-tetrahydro[1,2,4]triazolo[4,3-a]pyridin-3(2H)-one], for which the IC50 stood at 8 nM.
Next, `Cc1cccc(Cn2nc3n(c2=O)C(C(=O)N2CCCC2)CCC3)c1` (racemic) [Example 8, (5RS)-2-(3-Methylbenzyl)-5-(pyrrolidin-1-ylcarbonyl)-5,6,7,8-tetrahydro[1,2,4]triazolo[4,3-a]pyridin-3(2H)-one]: 0.99 nM.
